Paper PMC6983366, “A de novo peroxidase is also a promiscuous yet stereoselective carbene transferase” (Proceedings of the National Academy of Sciences of the …, 2020)

Columns and labels:
[1] = target: T1, Rma-TDE (Rhodothermus marinus, UniProt B3FQS5, V103T/M128D/M131E); assay: stopped-flow UV/visible kinetics of heme carbene formation; format: biochemical; settings: read-out: K1 (pseudo-Michaelis constant); ferrous protein, anaerobic, pH 8.6, 100 mM KCl, 20 mM CHES, 5 °C, ethanol present; no acceptor; single-turnover metallocarbenoid formation; covalent heme adduct
T1 construct: gene cytC; engineered triple variant TDE of c-type cytochrome; synthetic gene, periplasmic expression from pSHT in E. coli T7 Express

[2] = test system: T2, C45; assay: as above; format: biochemical, synthetic construct; settings: ferrous protein, anaerobic, pH 8.6, 100 mM KCl, 20 mM CHES, 5 °C, ethanol present; no acceptor; single-turnover metallocarbenoid formation; covalent heme adduct; read-out: K1 (pseudo-Michaelis constant)
T2 construct: de novo 4-helix bundle with covalently attached heme C

T1 sequence (B3FQS5 entry or part of it V103T/M128D/M131E): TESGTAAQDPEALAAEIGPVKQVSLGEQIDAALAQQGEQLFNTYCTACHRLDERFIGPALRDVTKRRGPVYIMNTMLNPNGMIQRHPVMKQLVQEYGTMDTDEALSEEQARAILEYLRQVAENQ

## CCOC(=O)C=[N+]=[N-] [EDA]
[1]
  Km: 490 µM
[2]
  Km: 74 µM
